According to PMC12598866, “A Comparative Study of Virucidal and Virustatic Multivalent Entry Inhibitors” (The Journal of Physical Chemistry. B, 2025):
Where two headings read alike, the source gives them in different places.

What was measured:
[1] = Partition coefficient octanol/water (UV-vis); type: physicochemical
Experimental: UV–vis spectroscopy was employed first to determine the correct dilution of all compounds. The seven compounds in this study were B3C11SO4, B3C11SO3, B3C6SO3, B3C6SO4, C4C11SO4, C4C11SO3, and C4C3SO3. The protocol is the same for all the compounds: in the beginning, all compounds were dissolved in water at a concentration of 1 mg/mL. The solution was put into a quartz cuvette and then into the UV–vis spectrometer, where the absorbance from wavelengths 600 to 190 nm was investigated. All of the samples presented a peak in absorbance around 200 nm. The samples were diluted further until the absorbance peak reached values near 0.90.
A biphasic solution composed of 1.5 mL of a water solution of antiviral +1.5 mL of octanol was thoroughly mixed for 60 min. After the mixing, the two phases were separated by centrifugation for 1 min using a benchtop centrifuge at 5000 rpm. The water phase saturated in octanol and the octanol phase saturated with water were extracted and characterized by UV–vis spectrometry.
The partition coefficient (log P) was then calculated using formula : logP=log(Absorbanceofoctanolphase/Absorbanceofwaterphase) 1

BSA = molecular target: T1, BSA (Bos taurus, UniProt P02769); experiment: Isothermal titration calorimetry with BSA; type: binding, bovine; conditions: ITC
T1 construct: purchased Sigma-Aldrich

H3N2 [2] = system: H3N2
H3N2 [3] = experiment: Influenza inhibition assay (ICC on MDCK cells, pretreatment); type: cell-based; conditions: Influenza A virus
HSV-2 [4] = experiment: HSV-2 inhibition assay (plaque reduction on Vero cells, pretreatment); type: cell-based, herpes simplex virus type 2; conditions: Human alphaherpesvirus 2, Vero, pretreatment condition
HSV-2 [5] = system: HSV-2; parameters: method as in Zhu et al., 2024 (citation number not given); conditions: earlier paper of the authors; ref Zhu et al., 2024 (citation number not given); cited from earlier work
H1N1N09 = experiment: Influenza virucidal assay; type: cell-based, Influenza A/Netherlands/602/2009 (H1N1)
HSV-2 [6] = system: HSV-2; parameters: method as in Zhu et al., 2024 (citation number not given); conditions: earlier paper of the authors on benzene-core MEIs; ref Zhu et al., 2024 (citation number not given); read-out: IC50 against HSV-2; cited from earlier work
[7] = H2O, 25 °C (Table 5), read-out: K d (BSA)
[8] = dose–response, read-out: IC50 H3N2
[9] = pretreatment condition, read-out: pretreatment IC50, H3N2

T1 sequence (P02769 25-607): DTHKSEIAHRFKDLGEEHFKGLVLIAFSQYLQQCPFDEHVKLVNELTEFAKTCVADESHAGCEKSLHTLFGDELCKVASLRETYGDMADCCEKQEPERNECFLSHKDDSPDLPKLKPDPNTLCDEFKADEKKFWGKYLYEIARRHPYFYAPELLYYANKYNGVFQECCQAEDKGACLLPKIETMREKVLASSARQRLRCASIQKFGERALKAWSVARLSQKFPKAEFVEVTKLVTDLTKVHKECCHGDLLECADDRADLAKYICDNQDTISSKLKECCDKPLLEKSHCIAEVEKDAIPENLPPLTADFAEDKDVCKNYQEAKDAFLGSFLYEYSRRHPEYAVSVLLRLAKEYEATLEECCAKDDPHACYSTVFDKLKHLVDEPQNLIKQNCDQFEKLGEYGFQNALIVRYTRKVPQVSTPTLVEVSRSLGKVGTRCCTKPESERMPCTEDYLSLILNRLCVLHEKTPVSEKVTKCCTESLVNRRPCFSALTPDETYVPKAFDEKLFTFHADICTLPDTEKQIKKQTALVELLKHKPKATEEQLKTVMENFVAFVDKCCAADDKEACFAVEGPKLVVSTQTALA

Compound: O=S(=O)(O)CCCCCCCCCCCSCc1cc(CSCCCCCCCCCCCS(=O)(=O)O)cc(CSCCCCCCCCCCCS(=O)(=O)O)c1 [B3C11SO3]
- logP [1]: -2.43
- ΔG (BSA) (BSA; H2O, 25 °C (Table 5)): –7.15 kcal/mol
- ΔH (BSA) (BSA; H2O, 25 °C (Table 5)): –9.08 kcal/mol
- –ΔTS (BSA) (BSA; H2O, 25 °C (Table 5)): 1.93 kcal/mol
- Kd (BSA; [7]): 5.82 µM
- -∆TS (BSA) (BSA; H2O, 25 °C (Table S3)): 1.93 kcal/mol
- N (BSA) (BSA; H2O, 25 °C (Table S3)): 1.1
- ∆G (BSA) (BSA; H2O, 25 °C (Table S3)): -7.15 kcal/mol
- ∆H (BSA) (BSA; H2O, 25 °C (Table S3)): -9.08 kcal/mol
- -∆TS (BSA) (BSA; H2O, 37 °C (Table S3)): 0.272 kcal/mol
- Kd (BSA; H2O, 37 °C (Table S3)): 4.97 µM
- N (BSA) (BSA; H2O, 37 °C (Table S3)): 0.838
- ∆G (BSA) (BSA; H2O, 37 °C (Table S3)): -7.53 kcal/mol
- ∆H (BSA) (BSA; H2O, 37 °C (Table S3)): -9.78 kcal/mol
- Virucidal activity, H3N2 (H3N2 [2]): S
- IC50 (H3N2 [3]; [8]): 49.5 ± 8.7 µM
- IC50 (H3N2 [3]; [9]): 49.5 ± 8.7 µM
- IC50 (HSV-2 [4]): 88.5 ± 7.6 µM
- Virucidal activity, FluB (FluB): S
- inhibition mechanism with HSV-2 (HSV-2 [5]): virustatic
- Virucidal activity, V-1 (HSV-1): S
- Virucidal activity, H1N1N09 (H1N1N09): S
- Virucidal activity, H1N1 clinical (H1N1 clinical): S

Compound: O=S(=O)(O)OCCCCCCCCCCCSCc1cc(CSCCCCCCCCCCCOS(=O)(=O)O)cc(CSCCCCCCCCCCCOS(=O)(=O)O)c1 [B3C11SO4]
- logP [1]: -2.2
- ΔG (BSA) (BSA; H2O, 25 °C (Table 5)): –7.71 kcal/mol
- ΔH (BSA) (BSA; H2O, 25 °C (Table 5)): –5.4 kcal/mol
- –ΔTS (BSA) (BSA; H2O, 25 °C (Table 5)): –2.31 kcal/mol
- Kd (BSA; [7]): 2.23 µM
- -∆TS (BSA) (BSA; PBS, 25 °C (Table S3)): -9.86 kcal/mol
- Kd (BSA; PBS, 25 °C (Table S3)): 3.8 µM
- N (BSA) (BSA; PBS, 25 °C (Table S3)): 3.21
- ∆G (BSA) (BSA; PBS, 25 °C (Table S3)): -7.46 kcal/mol
- ∆H (BSA) (BSA; PBS, 25 °C (Table S3)): 2.46 kcal/mol
- -∆TS (BSA) (BSA; PBS, 37 °C (Table S3)): -9.8 kcal/mol
- Kd (BSA; PBS, 37 °C (Table S3)): 1.37 µM
- N (BSA) (BSA; PBS, 37 °C (Table S3)): 2.58
- ∆G (BSA) (BSA; PBS, 37 °C (Table S3)): -8.32 kcal/mol
- ∆H (BSA) (BSA; PBS, 37 °C (Table S3)): 1.48 kcal/mol
- IC50 (H3N2 [3]; [8]): 0.6 ± 0.12 µM
- IC50 (H3N2 [3]; [9]): 0.6 ± 0.12 µM
- IC50 (HSV-2 [4]): 43 ± 8.3 µM
- inhibition mechanism with HSV-2 (HSV-2 [5]): virucidal
- IC50 (HSV-2 [6]): 26.2 µM

Compound: O=S(=O)(O)OCCCCCCCCCCCSCc1cc2c(cc1CSCCCCCCCCCCCOS(=O)(=O)O)OCCOCCOc1cc(CSCCCCCCCCCCCOS(=O)(=O)O)c(CSCCCCCCCCCCCOS(=O)(=O)O)cc1OCCOCCO2 [C4C11SO4]
- logP [1]: -1.76
- N (binding sites, BSA) (BSA; H2O, 25 °C (Table 5)): 2.5
- ΔG (BSA) (BSA; H2O, 25 °C (Table 5)): –6.07 kcal/mol
- ΔH (BSA) (BSA; H2O, 25 °C (Table 5)): –2.73 kcal/mol
- –ΔTS (BSA) (BSA; H2O, 25 °C (Table 5)): –3.34 kcal/mol
- Kd (BSA; [7]): 35.7 µM
- -∆TS (BSA) (BSA; PBS, 25 °C (Table S3)): -3.6 kcal/mol
- Kd (BSA; PBS, 25 °C (Table S3)): 161 µM
- N (BSA) (BSA; PBS, 25 °C (Table S3)): 10
- ∆G (BSA) (BSA; PBS, 25 °C (Table S3)): -5.18 kcal/mol
- ∆H (BSA) (BSA; PBS, 25 °C (Table S3)): -1.58 kcal/mol
- -∆TS (BSA) (BSA; PBS, 37 °C (Table S3)): -4.71 kcal/mol
- Kd (BSA; PBS, 37 °C (Table S3)): 8.47 µM
- N (BSA) (BSA; PBS, 37 °C (Table S3)): 7.6
- ∆G (BSA) (BSA; PBS, 37 °C (Table S3)): -7.2 kcal/mol
- ∆H (BSA) (BSA; PBS, 37 °C (Table S3)): -2.49 kcal/mol
- IC50 (H3N2 [3]; [8]): 40.9 ± 1.19 µM
- IC50 (H3N2 [3]; [9]): 6.4 ± 1.03 µM
- IC50 (HSV-2 [4]): 18.5 ± 5.2 µM

Compound: O=S(=O)(O)CCCCCCCCCCCSCc1cc2c(cc1CSCCCCCCCCCCCS(=O)(=O)O)OCCOCCOc1cc(CSCCCCCCCCCCCS(=O)(=O)O)c(CSCCCCCCCCCCCS(=O)(=O)O)cc1OCCOCCO2 [C4C11SO3]
- logP [1]: -2.25
- N (binding sites, BSA) (BSA; H2O, 25 °C (Table 5)): 2.63
- ΔG (BSA) (BSA; H2O, 25 °C (Table 5)): –6.81 kcal/mol
- ΔH (BSA) (BSA; H2O, 25 °C (Table 5)): –0.934 kcal/mol
- –ΔTS (BSA) (BSA; H2O, 25 °C (Table 5)): –5.88 kcal/mol
- Kd (BSA; [7]): 10.3 µM
- -∆TS (BSA) (BSA; PBS, 25 °C (Table S3)): -2.06 kcal/mol
- Kd (BSA; PBS, 25 °C (Table S3)): 124 µM
- N (BSA) (BSA; PBS, 25 °C (Table S3)): 10
- ∆G (BSA) (BSA; PBS, 25 °C (Table S3)): -5.33 kcal/mol
- ∆H (BSA) (BSA; PBS, 25 °C (Table S3)): -1.58 kcal/mol
- -∆TS (BSA) (BSA; PBS, 37 °C (Table S3)): -7.9 kcal/mol
- Kd (BSA; PBS, 37 °C (Table S3)): 1.64 µM
- N (BSA) (BSA; PBS, 37 °C (Table S3)): 2.6
- ∆G (BSA) (BSA; PBS, 37 °C (Table S3)): -8.21 kcal/mol
- ∆H (BSA) (BSA; PBS, 37 °C (Table S3)): -0.315 kcal/mol
- IC50 (H3N2 [3]; [8]): 6.4 ± 1.03 µM
- IC50 (H3N2 [3]; [9]): 40.9 ± 1.19 µM
- IC50 (HSV-2 [4]): 9.8 ± 1.5 µM
